Data taken from patent publication US9580444B2, “Polycyclic pyrazolinone derivative and herbicide comprising same as effective component thereof” (priority 2013, dated 2017).

These compounds were tested on Cyperus difformis (smallflower umbrella plant) (assay: Test Example-1: herbicidal effect by a treatment before weeds are generated under submerged conditions). Details: 500 g a.i/ha, pre-emergence treatment, about 15 days after treatment, score 0-5.
Assay type: in vivo
Method: (§1) Using the formulation prepared according to the methods described above, the herbicidal effect of the bicyclic pyrazolinone derivative of the invention according to the methods shown in Test Examples below was examined. The herbicidal effect with respect to the test weeds or the phytotoxicity with respect to the test crops was examined according to the following criteria, and evaluated in six stage scores of 0 to 5.
(§2) A plastic cup of 30 cm^2 was filled with paddy soil, soil puddling was performed, seeds of Echinochloa oryzicola (barnyard grass), Cyperus difformis (smallflower umbrella plant), Monochoria vaginalis (monochoria), Scirpus juncoides (bulrush), and Eleocharis acicularis (needle spikerush), and Lindernia procumbens (common false pimpernel), Rotala indica (indian toothcup), Elatine triandra (waterwort) as other annual broad leaf weeds were seeded therein, and kept in a submerged state. A wettable powder or an emulsifiable concentrate of the compound of the present invention prepared according to Formulation Example was diluted on the weed seeding day, and a submersing treatment was performed so as to be a predetermined dosage. The herbicidal effect with respect to the test weeds about 15 days after the treatment was evaluated according to the evaluation criteria in six stages of 0 to 5 described above.
In the case of `COc1cc(-c2c(F)n3n(c2=O)CCCC3)c(Cl)cc1Cl` [Example 1-356], the “Herbicidal effect Cyperus difformis” value is reported as 5 (Herbicidal effect/phytotoxicity was 90% or greater).
`COc1cc(Cl)ccc1Oc1cc(-c2c(Cl)n3n(c2=O)CCCC3)c(F)cc1Cl` [Compound 3-37] was tested, and the “Herbicidal effect Cyperus difformis” value was 5 (Herbicidal effect/phytotoxicity was 90% or greater).
`C=C(C)COc1cc(-c2c(Cl)n3n(c2=O)CCCC3)c(F)cc1F` [Example 1-106] was tested, and the “Herbicidal effect Cyperus difformis” value was 5 (Herbicidal effect/phytotoxicity was 90% or greater).
For `CC(C)CCOc1cc(-c2c(Cl)n3n(c2=O)CCCC3)c(F)cc1F` [Example 1-93], the “Herbicidal effect Cyperus difformis” value was 5 (Herbicidal effect/phytotoxicity was 90% or greater).
`C=CC(F)(F)Oc1cc(-c2c(Cl)n3n(c2=O)CCCC3)c(F)cc1Cl` [Example 1-206] was tested, and the “Herbicidal effect Cyperus difformis” value was 5 (Herbicidal effect/phytotoxicity was 90% or greater).
With `C=CCOC(=O)C=C(COc1cc(-c2c(Cl)n3n(c2=O)CCCC3)c(F)cc1Cl)OCC` (mixture of isomers) [Compound 2-11] the “Herbicidal effect Cyperus difformis” value was 5 (Herbicidal effect/phytotoxicity was 90% or greater).

These compounds were tested on Echinochloa oryzicola (barnyard grass) in the same assay as above. Details: 500 g a.i/ha, pre-emergence treatment, about 15 days after treatment, score 0-5.
Assay type: in vivo
Method: as §1, §2
With `COc1cc(-c2c(F)n3n(c2=O)CCCC3)c(Cl)cc1Cl` [Example 1-356] the “Herbicidal effect Echinochloa oryzicola” value was 5 (Herbicidal effect/phytotoxicity was 90% or greater).
For `COc1cc(Cl)ccc1Oc1cc(-c2c(Cl)n3n(c2=O)CCCC3)c(F)cc1Cl` [Compound 3-37], the “Herbicidal effect Echinochloa oryzicola” value was 5 (Herbicidal effect/phytotoxicity was 90% or greater).
With `C=C(C)COc1cc(-c2c(Cl)n3n(c2=O)CCCC3)c(F)cc1F` [Example 1-106] the “Herbicidal effect Echinochloa oryzicola” value was 5 (Herbicidal effect/phytotoxicity was 90% or greater).
With `CC(C)CCOc1cc(-c2c(Cl)n3n(c2=O)CCCC3)c(F)cc1F` [Example 1-93] the “Herbicidal effect Echinochloa oryzicola” value was 5 (Herbicidal effect/phytotoxicity was 90% or greater).
For `C=CC(F)(F)Oc1cc(-c2c(Cl)n3n(c2=O)CCCC3)c(F)cc1Cl` [Example 1-206], the “Herbicidal effect Echinochloa oryzicola” value was 5 (Herbicidal effect/phytotoxicity was 90% or greater).
In the case of `C=CCOC(=O)C=C(COc1cc(-c2c(Cl)n3n(c2=O)CCCC3)c(F)cc1Cl)OCC` (mixture of isomers) [Compound 2-11], the “Herbicidal effect Echinochloa oryzicola” value is reported as 5 (Herbicidal effect/phytotoxicity was 90% or greater).

Each compound was assayed on Eleocharis acicularis (needle spikerush) in the same assay as above. Details: 500 g a.i/ha, pre-emergence treatment, about 15 days after treatment, score 0-5.
Assay type: in vivo
Method: as §1, §2
With `COc1cc(-c2c(F)n3n(c2=O)CCCC3)c(Cl)cc1Cl` [Example 1-356] the “Herbicidal effect Eleocharis acicularis” value was 5 (Herbicidal effect/phytotoxicity was 90% or greater).
With `COc1cc(Cl)ccc1Oc1cc(-c2c(Cl)n3n(c2=O)CCCC3)c(F)cc1Cl` [Compound 3-37] the “Herbicidal effect Eleocharis acicularis” value was 5 (Herbicidal effect/phytotoxicity was 90% or greater).
`C=C(C)COc1cc(-c2c(Cl)n3n(c2=O)CCCC3)c(F)cc1F` [Example 1-106] was tested, and the “Herbicidal effect Eleocharis acicularis” value was 5 (Herbicidal effect/phytotoxicity was 90% or greater).
For `CC(C)CCOc1cc(-c2c(Cl)n3n(c2=O)CCCC3)c(F)cc1F` [Example 1-93], the “Herbicidal effect Eleocharis acicularis” value was 5 (Herbicidal effect/phytotoxicity was 90% or greater).
`C=CC(F)(F)Oc1cc(-c2c(Cl)n3n(c2=O)CCCC3)c(F)cc1Cl` [Example 1-206] was tested, and the “Herbicidal effect Eleocharis acicularis” value was 5 (Herbicidal effect/phytotoxicity was 90% or greater).
With `C=CCOC(=O)C=C(COc1cc(-c2c(Cl)n3n(c2=O)CCCC3)c(F)cc1Cl)OCC` (mixture of isomers) [Compound 2-11] the “Herbicidal effect Eleocharis acicularis” value was 5 (Herbicidal effect/phytotoxicity was 90% or greater).

These compounds were tested on Monochoria vaginalis (monochoria) in the same assay as above. Details: 500 g a.i/ha, pre-emergence treatment, about 15 days after treatment, score 0-5.
Assay type: in vivo
Method: as §1, §2
With `COc1cc(-c2c(F)n3n(c2=O)CCCC3)c(Cl)cc1Cl` [Example 1-356] the “Herbicidal effect Monochoria vaginalis” value was 5 (Herbicidal effect/phytotoxicity was 90% or greater).
For `COc1cc(Cl)ccc1Oc1cc(-c2c(Cl)n3n(c2=O)CCCC3)c(F)cc1Cl` [Compound 3-37], the “Herbicidal effect Monochoria vaginalis” value was 5 (Herbicidal effect/phytotoxicity was 90% or greater).
In the case of `C=C(C)COc1cc(-c2c(Cl)n3n(c2=O)CCCC3)c(F)cc1F` [Example 1-106], the “Herbicidal effect Monochoria vaginalis” value is reported as 5 (Herbicidal effect/phytotoxicity was 90% or greater).
In the case of `CC(C)CCOc1cc(-c2c(Cl)n3n(c2=O)CCCC3)c(F)cc1F` [Example 1-93], the “Herbicidal effect Monochoria vaginalis” value is reported as 5 (Herbicidal effect/phytotoxicity was 90% or greater).
In the case of `C=CC(F)(F)Oc1cc(-c2c(Cl)n3n(c2=O)CCCC3)c(F)cc1Cl` [Example 1-206], the “Herbicidal effect Monochoria vaginalis” value is reported as 5 (Herbicidal effect/phytotoxicity was 90% or greater).
In the case of `C=CCOC(=O)C=C(COc1cc(-c2c(Cl)n3n(c2=O)CCCC3)c(F)cc1Cl)OCC` (mixture of isomers) [Compound 2-11], the “Herbicidal effect Monochoria vaginalis” value is reported as 5 (Herbicidal effect/phytotoxicity was 90% or greater).

What follows are compounds tested on Scirpus juncoides (bulrush) in the same assay as above. Details: 500 g a.i/ha, pre-emergence treatment, about 15 days after treatment, score 0-5.
Assay type: in vivo
Method: as §1, §2
For `COc1cc(-c2c(F)n3n(c2=O)CCCC3)c(Cl)cc1Cl` [Example 1-356], the “Herbicidal effect Scirpus juncoides” value was 5 (Herbicidal effect/phytotoxicity was 90% or greater).
`COc1cc(Cl)ccc1Oc1cc(-c2c(Cl)n3n(c2=O)CCCC3)c(F)cc1Cl` [Compound 3-37] was tested, and the “Herbicidal effect Scirpus juncoides” value was 5 (Herbicidal effect/phytotoxicity was 90% or greater).
In the case of `C=C(C)COc1cc(-c2c(Cl)n3n(c2=O)CCCC3)c(F)cc1F` [Example 1-106], the “Herbicidal effect Scirpus juncoides” value is reported as 5 (Herbicidal effect/phytotoxicity was 90% or greater).
`CC(C)CCOc1cc(-c2c(Cl)n3n(c2=O)CCCC3)c(F)cc1F` [Example 1-93] was tested, and the “Herbicidal effect Scirpus juncoides” value was 5 (Herbicidal effect/phytotoxicity was 90% or greater).
With `C=CC(F)(F)Oc1cc(-c2c(Cl)n3n(c2=O)CCCC3)c(F)cc1Cl` [Example 1-206] the “Herbicidal effect Scirpus juncoides” value was 5 (Herbicidal effect/phytotoxicity was 90% or greater).
`C=CCOC(=O)C=C(COc1cc(-c2c(Cl)n3n(c2=O)CCCC3)c(F)cc1Cl)OCC` (mixture of isomers) [Compound 2-11] was tested, and the “Herbicidal effect Scirpus juncoides” value was 5 (Herbicidal effect/phytotoxicity was 90% or greater).

Each compound was assayed on other annual broad leaf weeds (Lindernia procumbens, Rotala indica, Elatine triandra) in the same assay as above. Details: 500 g a.i/ha, pre-emergence treatment, about 15 days after treatment, score 0-5.
Assay type: in vivo
Method: as §1, §2
In the case of `COc1cc(-c2c(F)n3n(c2=O)CCCC3)c(Cl)cc1Cl` [Example 1-356], the “Herbicidal effect Broadleaf weed” value is reported as 5 (Herbicidal effect/phytotoxicity was 90% or greater).
`COc1cc(Cl)ccc1Oc1cc(-c2c(Cl)n3n(c2=O)CCCC3)c(F)cc1Cl` [Compound 3-37] was tested, and the “Herbicidal effect Broadleaf weed” value was 5 (Herbicidal effect/phytotoxicity was 90% or greater).
`C=C(C)COc1cc(-c2c(Cl)n3n(c2=O)CCCC3)c(F)cc1F` [Example 1-106] was tested, and the “Herbicidal effect Broadleaf weed” value was 5 (Herbicidal effect/phytotoxicity was 90% or greater).
For `CC(C)CCOc1cc(-c2c(Cl)n3n(c2=O)CCCC3)c(F)cc1F` [Example 1-93], the “Herbicidal effect Broadleaf weed” value was 5 (Herbicidal effect/phytotoxicity was 90% or greater).
In the case of `C=CC(F)(F)Oc1cc(-c2c(Cl)n3n(c2=O)CCCC3)c(F)cc1Cl` [Example 1-206], the “Herbicidal effect Broadleaf weed” value is reported as 5 (Herbicidal effect/phytotoxicity was 90% or greater).
With `C=CCOC(=O)C=C(COc1cc(-c2c(Cl)n3n(c2=O)CCCC3)c(F)cc1Cl)OCC` (mixture of isomers) [Compound 2-11] the “Herbicidal effect Broadleaf weed” value was 5 (Herbicidal effect/phytotoxicity was 90% or greater).
